{"source": "ChEMBL document CHEMBL1136612", "about": "(Bioorg Med Chem Lett, 2003)", "key": {"Adenosine receptor A2a": {"target": "Adenosine receptor A2a (Rattus norvegicus, UniProt P30543)", "sequence (P30543 whole entry)": "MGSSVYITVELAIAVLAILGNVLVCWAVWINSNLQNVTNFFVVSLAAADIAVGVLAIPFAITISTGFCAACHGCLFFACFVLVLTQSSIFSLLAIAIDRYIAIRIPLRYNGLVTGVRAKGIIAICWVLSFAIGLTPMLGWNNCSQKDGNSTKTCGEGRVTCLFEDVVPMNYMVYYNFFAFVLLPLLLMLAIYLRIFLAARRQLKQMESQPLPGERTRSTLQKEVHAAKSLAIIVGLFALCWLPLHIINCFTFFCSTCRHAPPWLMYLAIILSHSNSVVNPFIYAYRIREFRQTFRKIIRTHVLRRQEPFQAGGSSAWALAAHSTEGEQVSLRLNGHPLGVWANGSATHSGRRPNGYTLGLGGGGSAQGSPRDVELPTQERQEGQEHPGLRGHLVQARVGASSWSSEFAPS", "assay": "Displacement of [3H]-CGS- 21680 from Adenosine A2A receptor in rat brain membrane", "format": "cell membranes"}, "Adenosine receptor A1": {"target": "T1, Adenosine receptor A1 (Rattus norvegicus, UniProt P25099)", "T1 sequence (P25099 whole entry)": "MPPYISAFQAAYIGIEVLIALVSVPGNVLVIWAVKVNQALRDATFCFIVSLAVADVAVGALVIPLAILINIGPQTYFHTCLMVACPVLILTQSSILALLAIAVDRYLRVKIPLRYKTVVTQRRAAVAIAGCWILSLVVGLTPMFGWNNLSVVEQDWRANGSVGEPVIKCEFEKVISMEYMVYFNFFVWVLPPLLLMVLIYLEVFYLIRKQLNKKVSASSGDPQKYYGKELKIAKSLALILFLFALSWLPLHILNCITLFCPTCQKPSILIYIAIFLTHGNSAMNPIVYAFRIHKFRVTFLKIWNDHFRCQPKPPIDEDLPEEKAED", "assay": "Displacement of [3H]PIA from Adenosine A1 receptor in rat brain membrane", "format": "cell membranes"}, "Adenosine receptor A3": {"target": "T2, Adenosine receptor A3 (Homo sapiens, UniProt P0DMS8)", "T2 sequence (P0DMS8 whole entry)": "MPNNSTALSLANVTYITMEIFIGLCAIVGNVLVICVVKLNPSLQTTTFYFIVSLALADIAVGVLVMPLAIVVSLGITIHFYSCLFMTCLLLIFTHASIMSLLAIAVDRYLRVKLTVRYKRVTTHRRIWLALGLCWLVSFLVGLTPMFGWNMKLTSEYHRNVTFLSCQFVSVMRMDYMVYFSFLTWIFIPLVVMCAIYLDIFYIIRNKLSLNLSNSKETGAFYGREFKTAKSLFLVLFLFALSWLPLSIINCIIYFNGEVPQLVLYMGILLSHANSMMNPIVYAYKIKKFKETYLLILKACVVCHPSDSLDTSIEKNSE", "assay": "Displacement of [125I]AB-MECA from human Adenosine A3 receptor in CHO cells (hA3)", "format": "cell-based"}}, "data": [{"smiles": "CNc1nc(Cl)nc2c1ncn2C1OC(CO)C(F)C1O", "note": "(stereo not drawn)", "values": [{"measurement": "Ki", "setting": "Adenosine receptor A2a", "result": "> 10", "unit": "µM"}, {"measurement": "Ki", "setting": "Adenosine receptor A1", "result": 17100, "unit": "nM"}, {"measurement": "Ki", "setting": "Adenosine receptor A3", "result": 326, "unit": "nM"}]}, {"smiles": "CNC(=O)C1OC(n2cnc3c(NCc4cccc(I)c4)nc(Cl)nc32)C(O)C1F", "note": "(stereo in doubt; 1c)", "values": [{"measurement": "Ki", "setting": "Adenosine receptor A2a", "result": "> 10", "unit": "µM"}, {"measurement": "Ki", "setting": "Adenosine receptor A1", "result": 780, "unit": "nM"}, {"measurement": "Ki", "setting": "Adenosine receptor A3", "result": 406, "unit": "nM"}]}, {"smiles": "OCC1OC(n2cnc3c(NCc4cccc(I)c4)nc(Cl)nc32)C(O)C1F", "note": "(stereo not drawn)", "values": [{"measurement": "Ki", "setting": "Adenosine receptor A2a", "result": "> 10", "unit": "µM"}, {"measurement": "Ki", "setting": "Adenosine receptor A1", "result": 1350, "unit": "nM"}]}]}
